Tested on: IgE
Assay: Total content of IgE in serum, ovalbumin asthma model
Type: in vivo, BALB/c female mice
Conditions: day 25, compared to OVA group
Protocol: 6 week old BALB/c female mice were purchased and the mice were divided into 5 groups with 5 animals per group shown in Table 3 below after habituation breeding of about 2 weeks.
The test was conducted on the schedule of sensitization, causing diseases and administration of test materials shown in FIG. 12. “IP” in FIG. 12 refers to ovalbumin sensitization treatment by the intraperitoneal administration of ovalbumin/aluminum hydroxide, and “IH” refers to inhalation exposure treatment of ovalbumin, and “PO” refers to the administration of the test materials. Specifically, 200 μL of PBS (pH 7.4) emulsified by the addition of 20 μg ovalbumin and 2 mg aluminum hydroxide as an adjuvant was intraperitoneally administered to all mice in 4 groups except the normal control group (the initial sensitization, day 1 of the test). Then, after 2 weeks (day 14 of the test), the second sensitization treatment was conducted in the same way as the initial sensitization. […]
On day 25 of the test, the total contents of IgE and contents of ovalbumin-specific IgE in serums were measured using blood collected from orbital sinuses of the mice. An ELISA kit for IgE measurement (a product from BioLegend, Inc.) was used for the measurement and the contents were measured at wavelength of 450 nm using a micro plate reader (a product from Bio-Rad Laboratories, Inc.).

CCCCCCOc1cc(C)c(O)c(C)c1C [HTHQ, 2,3,5-trimethylhydroquinone-1-hexyl ether]
total amount of IgE in serum (HTHQ 20 mg/kg/day oral (HTHQ20)): significant reduction | total amount of IgE in serum (HTHQ 40 mg/kg/day oral (HTHQ40)): a declining trend

From patent US20180049996A1, “THERAPEUTIC AGENT FOR CHRONIC RESPIRATORY DISEASE AND COMPOSITION FOR INHIBITING CARDIAC FIBROSIS” (NIPPON HYPOX LABORATORIES INCORPORATED, priority 2015, published 2018)
